Literature values as cited in the PKSmart pharmacokinetics tables (Seal et al. 2025).

Test: Lombardo, Berellini, Obach 2018, Drug Metab Dispos 46:1466, doi 10.1124/dmd.118.082966
Details: human; for MRT / Vd / clearance / half-life: in vivo, iv; for fraction unbound: plasma

| Compound | MRT | Vd | clearance | half-life | fraction unbound |
| --- | --- | --- | --- | --- | --- |
| COc1cccc2c1[C@H](CO)N1[C@H](C#N)[C@@H]3CC(C(=O)O)[C@H]([C@@H]1C2)N3C (stereo partly drawn) | 1.23 h | 0.23 L/kg | 3.06 mL/min/kg | 1.52 h | – |
| Cc1ccc(Sc2ccccc2N2CCNCC2)c(C)c1 | 101 h | 35.3 L/kg | 5.8 mL/min/kg | 72 h | 0.02 |
| O=P(O)(O)C(NC1CCCCCC1)P(=O)(O)O | 1.85 h | 0.24 L/kg | 2.16 mL/min/kg | 1.82 h | 0.9 |
| N=C(N)Nc1ccc(C(=O)Oc2ccc3cc(C(=N)N)ccc3c2)cc1 | 1.15 h | 5.71 L/kg | 82 mL/min/kg | 1.84 h | – |
| CCOC(=O)Nc1ccc(NCc2ccc(F)cc2)cc1N | 5 h | 2.5 L/kg | 8.3 mL/min/kg | 9 h | 0.2 |
| CCCc1nc2c(C)cc(-c3nc4ccccc4n3C)cc2n1Cc1ccc(-c2ccccc2C(=O)O)cc1 | 11 h | 5.3 L/kg | 8.4 mL/min/kg | 20 h | – |
| CCN[C@@H](C)Cc1cccc(C(F)(F)F)c1 | 18 h | 11 L/kg | 11 mL/min/kg | 14 h | 0.66 |
| C[C@H](CN1CCOCC1)C(C(=O)N1CCCC1)(c1ccccc1)c1ccccc1 | 3.88 h | 0.47 L/kg | 2.19 mL/min/kg | 3.18 h | – |
| CS(=O)(=O)c1cc(F)cc2c3c(n(Cc4ccc(Cl)cc4)c12)[C@@H](CC(=O)O)CC3 | 13.7 h | 1 L/kg | 1.21 mL/min/kg | 11.8 h | – |
| CCCNC(C)C(=O)Nc1ccccc1C (stereo not drawn) | 2.2 h | 3.7 L/kg | 29 mL/min/kg | 1.8 h | 0.72 |
| COc1cccc(OCCCN)c1-c1cc(Nc2cnc(C#N)cn2)n[nH]1 | 11.2 h | 22.8 L/kg | 34 mL/min/kg | 12.5 h | – |
| OC[C@@H]1O[C@@H](n2cnc3c2N=CNC[C@H]3O)C[C@H]1O | 6 h | 0.59 L/kg | 1.63 mL/min/kg | 5.3 h | – |
| COc1ccc([C@@H]2CNC(=O)C2)cc1OC1CCCC1 | 1.77 h | 0.67 L/kg | 6.3 mL/min/kg | 7 h | 0.11 |
| CN(CC(N)=O)C(=O)N(CCCl)N=O | 1.4 h | 0.76 L/kg | 9 mL/min/kg | 1 h | – |
| CC[C@H]1OC(=O)C(C)[C@@H](O[C@H]2C[C@@](C)(OC)[C@@H](O)[C@H](C)O2)[C@H](C)[C@@H](O[C@@H]2O[C@H](C)C[C@H](N(C)C)[C@H]2O)[C@](C)(OC)CC(C)C(=O)C(C)[C@@H](O)[C@]1(C)O (stereo partly drawn) | 3.4 h | 1.5 L/kg | 7.3 mL/min/kg | 2.8 h | – |
| Cn1c(=N)c(NC(=O)NCCN)cn1CC1=C(C(=O)O)N2C(=O)C(=NC(=O)C(NOC(C)(C)C(=O)O)c3nsc(N)n3)[C@H]2SC1 (stereo partly drawn) | 2.39 h | 0.17 L/kg | 1.16 mL/min/kg | 2.58 h | 0.81 |
| O=C(/C=C/c1ccc(O)c(O)c1)O[C@@H]1[C@H](O)C[C@@](O)(C(=O)O)C[C@H]1OC(=O)/C=C/c1ccc(O)c(O)c1 | 0.3 h | 0.63 L/kg | 34.6 mL/min/kg | 0.57 h | – |

| Compound | MRT | Vd | clearance | half-life | fraction unbound |
| --- | --- | --- | --- | --- | --- |
| C/C=C(\C)C(=O)O[C@H]1[C@H](OC(C)=O)[C@]2(CO)[C@H](O)C[C@]3(C)C(=CC[C@@H]4[C@@]5(C)CC[C@H](O[C@@H]6OC(C(=O)O)[C@@H](O[C@@H]7O[C@H](CO)[C@@H](O)[C@H](O)[C@H]7O)[C@H](O)[C@H]6O[C@@H]6O[C@H](CO)[C@@H](O)[C@H](O)[C@H]6O)[C@](C)(CO)[C@@H]5CC[C@]43C)[C@@H]2CC1(C)C (stereo partly drawn) | 2.85 h | 0.28 L/kg | 1.65 mL/min/kg | 2.4 h | – |
| COc1cc(CC(=O)NCC(=O)N(CCC(=O)O)Cc2ccc(OC)c(OC)c2)ccc1NC(=O)Nc1ccccc1C | 0.38 h | 0.25 L/kg | 11 mL/min/kg | 1.6 h | – |
| CC[C@H]1CN2CC[C@H]1C[C@@H]2[C@@H](O)c1ccnc2ccc(OC)cc12 | 11 h | 2.8 L/kg | 4.2 mL/min/kg | 5.7 h | 0.22 |
| CNC[C@@H]1CC[C@@H](N)[C@@H](O[C@@H]2[C@H](O)[C@@H](O[C@H]3OC[C@](C)(O)[C@H](NC)[C@H]3O)[C@H](N)C[C@@H]2N)O1 | 2.4 h | 0.15 L/kg | 1.1 mL/min/kg | 2.1 h | – |
| CC(C)NCC(O)c1cc(O)cc(O)c1 (stereo not drawn) | 7.14 h | 6.03 L/kg | 14.1 mL/min/kg | 6.41 h | 0.9 |
| COc1cc([C@@H]2c3cc4c(cc3[C@@H](O[C@@H]3O[C@@H]5CO[C@@H](c6cccs6)O[C@H]5[C@H](O)[C@H]3O)[C@H]3COC(=O)C23)OCO4)cc(OC)c1O (stereo partly drawn) | 37 h | 0.41 L/kg | 0.19 mL/min/kg | 16 h | 0.0044 |
| CN(C)CC(Oc1ccccc1)Oc1ccccc1 | 3.4 h | 2.8 L/kg | 13.7 mL/min/kg | 4.4 h | – |
| CN[C@@H]1CCc2[nH]c3ccc(C(N)=O)cc3c2C1 | 22 h | 3.6 L/kg | 2.5 mL/min/kg | 24 h | – |
| O=C(NC1CCN(CCCCC2(C(=O)NCC(F)(F)F)c3ccccc3-c3ccccc32)CC1)c1ccccc1-c1ccc(C(F)(F)F)cc1 | 31.2 h | 16.3 L/kg | 8.7 mL/min/kg | 39.7 h | 0.002 |
| NC(=S)NN=Cc1ncccc1N | 2.6 h | 0.41 L/kg | 2.65 mL/min/kg | 1.9 h | – |
| C/C=C(/C)C(=O)O[C@H]1[C@H](OC(C)=O)[C@]2(CO)[C@H](O)C[C@]3(C)C(=CC[C@@H]4[C@@]5(C)CC[C@H](O[C@@H]6OC(C(=O)O)[C@@H](O[C@@H]7O[C@H](CO)[C@@H](O)[C@H](O)[C@H]7O)[C@H](O)[C@H]6O[C@@H]6O[C@H](CO)[C@@H](O)[C@H](O)[C@H]6O)[C@](C)(CO)[C@@H]5CC[C@]43C)[C@@H]2CC1(C)C (stereo partly drawn) | 1.5 h | 0.23 L/kg | 2.55 mL/min/kg | 1.8 h | – |
| CCOC(=O)N[C@@H]1CC[C@@H]2[C@H](CC3C(=O)O[C@H](C)[C@H]3[C@H]2/C=C/c2ccc(-c3cccc(F)c3)cn2)C1 (stereo partly drawn) | 183 h | 3.74 L/kg | 0.34 mL/min/kg | 149 h | 0.01 |
| C[C@@](O)(/C=C/[C@H]1CC=CC(=O)O1)[C@@H](C[C@@H](O)\C=C/C=C\C=C\CO)OP(=O)(O)O | 1.2 h | 0.086 L/kg | 1.2 mL/min/kg | 1.5 h | – |
| CCOC(=O)C(CCc1ccccc1)NC(C)C(=O)N1Cc2cc(OC)c(OC)cc2CC1C(=O)O (stereo not drawn) | – | – | 6.3 mL/min/kg | 1.3 h | 0.12 |
| C=Cc1c(C)c2[nH]c1=Cc1[nH]c(c(=CCC(=O)O)c1C)=Cc1[nH]c(c(C)c1CCC(=O)OC)C=C1NC(=C3C=CC(C(=O)OC)=C(C(=O)OC)[C@@]13C)C=2 | 6.6 h | 0.63 L/kg | 1.6 mL/min/kg | 5.6 h | – |
| CCOc1ncc(S(=O)(=O)N2CCN(CC)CC2)cc1-c1nc(=O)c2nn(CCOC)c(CC)c2[nH]1 | 2.8 h | 2.4 L/kg | 14.3 mL/min/kg | 4 h | – |
